Values quoted from earlier work, collected in US6470305B1, “Chemical analysis by morphological similarity” (priority 1998, dated 2002).

Target: CDK2 (Homo sapiens, UniProt P24941)
Conditions: weak inhibitor; value from Kim et al., Prog Cell Cycle Res (1996); read-out: IC50 versus CDK2

CC(C)=CCNc1ncnc2nc[nH]c12 [IPA, isopentenyl adenine]
IC50: 50 µM
